Activity calls are given as the source filed them. No cut-off for these calls is given here.
How the values were obtained:
RAW264.7 [1] = test: Anti-inflammatory activity in mouse RAW264.7 cells assessed as inhibition of IL-6 production preincubated for 30 mins followed by 0.5 ug/ml LPS addition after 24 hrs by ELISA; assay type: functional, cell-based
RAW264.7 [2] = test: Anti-inflammatory activity in mouse RAW264.7 cells assessed as inhibition of TNFalpha production at 10 uM preincubated for 30 mins followed by 0.5 ug/ml LPS addition after 24 hrs by ELISA; assay type: functional
RAW264.7 [3] = test: Anti-inflammatory activity in mouse RAW264.7 cells assessed as inhibition of TNFalpha production preincubated for 30 mins followed by 0.5 ug/ml LPS addition after 24 hrs by ELISA; assay type: functional, cell-based
RAW264.7 [4] = test: Anti-inflammatory activity in mouse RAW264.7 cells assessed as inhibition of IL-6 production at 10 uM preincubated for 30 mins followed by 0.5 ug/ml LPS addition after 24 hrs by ELISA; assay type: functional
[5] = Cytotoxicity against human HL-7702 cells assessed as cell viability at 10 uM after 24 hrs by MTT assay; assay type: cell-based; details: l02, 24 h

Row | Structure (SMILES) | inhibition (RAW264.7 [1]) | inhibition (INH) (RAW264.7 [2]) [%] | inhibition (RAW264.7 [3]) | inhibition (INH) (RAW264.7 [4]) [%] | Activity [5] | inhibition (RAW264.7 [2]) | inhibition (RAW264.7 [4])
1 | COc1ccc(/C=C2\CCC/C(=C\c3ccc(O)c(OC)c3)C2=O)cc1O | Dose-dependent effect | >50 | Dose-dependent effect | >50 | Non-toxic |  | 
2 | COc1cc(/C=C2\CCC/C(=C\c3ccccc3Br)C2=O)ccc1O |  |  |  |  | Non-toxic | Active | Active
3 | COc1ccc(OC)c(/C=C2\CCC/C(=C\c3ccc(O)c(OC)c3)C2=O)c1 |  |  |  |  | Non-toxic | Active | Active
4 | COc1cc(/C=C2\CCC/C(=C\c3ccc(Cl)c(Cl)c3)C2=O)ccc1O |  |  |  |  | Non-toxic | Active | Active
5 | COc1cc(/C=C2\CCC/C(=C\c3c(C)cc(C)cc3C)C2=O)ccc1O |  |  |  |  | Non-toxic | Active | Active
6 | COc1ccc(/C=C2\CC/C(=C\c3ccc(O)c(OC)c3)C2=O)c(F)c1 |  |  |  |  | Non-toxic | Active | Active
7 | COc1cc(/C=C2\CCC/C(=C\c3cccc(Cl)c3Cl)C2=O)ccc1O |  |  |  |  | Non-toxic | Active | Active
8 | CCOc1ccc(Br)cc1/C=C1\CCC/C(=C\c2ccc(O)c(OC)c2)C1=O |  |  |  |  | Non-toxic | Active | Active
9 | COc1ccc(/C=C2\CCC/C(=C\c3ccc(O)c(OC)c3)C2=O)c(OC)c1 |  |  |  |  | Non-toxic | Active | Active
10 | COc1cc(/C=C2\CCC/C(=C\c3cc(F)ccc3F)C2=O)ccc1O |  |  |  |  | Non-toxic | Active | Active
11 | COc1cc(/C=C2\CC/C(=C\c3ccc4ccccc4c3)C2=O)ccc1O |  |  |  |  | Non-toxic | Active | Active
12 | COc1cc(/C=C2\CCC/C(=C\c3ccc(Cl)c([N+](=O)[O-])c3)C2=O)ccc1O |  |  |  |  | Non-toxic | Active | Active
13 | COc1cc(/C=C2\CCC/C(=C\c3ccccc3C(F)(F)F)C2=O)ccc1O |  |  |  |  | Non-toxic | Active | Active
14 | COc1cc(/C=C2\CCC/C(=C\c3cccc(F)c3)C2=O)ccc1O |  |  |  |  | Non-toxic | Active | Active
15 | COc1ccc(/C=C2\CCC/C(=C\c3ccc(O)c(OC)c3)C2=O)cc1 |  |  |  |  | Non-toxic | Active | Active
16 | COc1cc(/C=C2\CCC/C(=C\c3ccccc3OC)C2=O)ccc1O |  |  |  |  | Non-toxic | Active | Active
17 | COc1cc(/C=C2\CCC/C(=C\c3ccc(OC)c(OC)c3)C2=O)ccc1O |  |  |  |  | Non-toxic | Active | Active
18 | COc1cc(/C=C2\CC/C(=C\c3cc4c(cc3Br)OCO4)C2=O)ccc1O |  |  |  |  | Non-toxic | Active | Active
19 | COc1cc(/C=C2\CCC/C(=C\c3ccc(Cl)cc3)C2=O)ccc1O |  |  |  |  | Non-toxic | Active | Active
